System: CFTR+/+ and CFTR−/− mice
Test: Production of mucus in the airways of mice (alcian blue score), with or without LPS from P. aeruginosa
Assay type: in vivo, mouse
Details: for Average Score (production of mucus in the airways): D4
Protocol: The studies were carried out on a cystic fibrosis model established in C57BL/6J mice (Cftr^tmUNC mice) kept on a mixed gene pool by the “Centre de Distribution, de Typage et d'Archivage Animal” UPS44 CNRS in Orléans. Wild-type CFTR^+/+ and mutant CFTR^−/− mice were weaned at 3-4 weeks and fed with food supplemented with a commercial laxative, Movicol®. Without laxative CFTR^−/− mice die rapidly after weaning due to bowel obstructions resulting from a change in the secretion of fluids in the digestive tract.
The experiments were conducted on groups of at least 5 mice aged 5-7 weeks for each category of treatment.
The products used were dissolved in an injectable saline solution (or physiological saline) and injected by intratracheal (i.t.) or intraperitoneal (i.p.) route.
The use protocol was as follows:
1) Aspirin (50 mg/kg, i.p.), 30 minutes before LPS, then each day, once a day;
2) ATK (20 mg/kg, i.p.), 30 minutes before LPS and 24 hours after.
The mice were anesthetized with 2% xylazine (8 mg/kg) and ketamine 1000 (40 mg/kg) before the infusion of LPS (330 μg/kg, i.t.).
Bronchoalveolar lavages (BALs) and lung samplings were carried out 4 days after the infusion of LPS, as indicated below:
The lungs were infused with 4% formaldehyde to remove the blood and immersed in 4% formaldehyde for 48 hours at 4° C. before being added to paraffin.
Sections 5 μm thick were stained with hemotoxylin/eosin, periodic acid-Schiff (PAS) and alcian blue (AB; pH 2.4) according to standard methods (Histologie Normale et Pathologique. P. GANTER & G. Jolies, Gauthier-Villars).
After microscopic examination of the sections stained with alcian blue, which colours the mucus, the positive bronchi and cells were counted. The “number of positive bronchi/number of positive cells” ratio makes it possible to establish the score which serves to evaluate the results of the mucus production studies (see below).

CC(=O)Oc1ccccc1C(=O)O [asp, aspirin]
Average Score (production of mucus in the airways) (CFTR+/+ mice, LPS 330 μg/kg i.t. + aspirin 50 mg/kg i.p.): 0
Average Score (production of mucus in the airways) (CFTR+/+ mice, control (physiological saline, no LPS) + aspirin 50 mg/kg i.p.): 0.25
secretion of mucus (CFTR−/− mice stimulated by infusion with LPS of Pseudomonas aeruginosa): inhibited
Average Score (production of mucus in the airways) (CFTR−/− mice, LPS 330 μg/kg i.t. + aspirin 50 mg/kg i.p.): 0
Average Score (production of mucus in the airways) (CFTR−/− mice, control (physiological saline, no LPS) + aspirin 50 mg/kg i.p.): 0.50
